One data set deals with UL37C (571-1123) (Human alphaherpesvirus 1 strain 17, UniProt P10221). In words: tandem mass spectrometry of cysteine labelling. The following applies: covalent at C819; 45 min; also tested at 1 µM. In kind it is binding.
The data set “SEC” deals with the molecule itself. In words: SEC. (Size exclusion chromatography separates by hydrodynamic size, large species first.)

Sequence of UL37C (571-1123) (P10221 571-1123): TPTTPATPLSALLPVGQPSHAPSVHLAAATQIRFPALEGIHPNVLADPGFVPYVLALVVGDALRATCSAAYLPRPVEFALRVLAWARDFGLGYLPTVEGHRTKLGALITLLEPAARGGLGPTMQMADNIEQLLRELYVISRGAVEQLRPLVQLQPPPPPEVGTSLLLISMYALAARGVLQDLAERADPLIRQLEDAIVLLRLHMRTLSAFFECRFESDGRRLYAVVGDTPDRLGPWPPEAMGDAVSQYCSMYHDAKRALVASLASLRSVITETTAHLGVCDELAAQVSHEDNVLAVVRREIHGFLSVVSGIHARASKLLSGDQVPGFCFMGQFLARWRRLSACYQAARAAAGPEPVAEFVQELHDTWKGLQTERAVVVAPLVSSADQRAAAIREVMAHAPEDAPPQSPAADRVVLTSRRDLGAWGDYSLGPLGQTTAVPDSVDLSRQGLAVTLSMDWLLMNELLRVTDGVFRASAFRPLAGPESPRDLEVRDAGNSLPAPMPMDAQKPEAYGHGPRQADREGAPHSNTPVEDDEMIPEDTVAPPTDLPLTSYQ

For the molecule `O=C(CCl)NCO` [2-Chloro-N-(hydroxymethyl)acetamide], at UL37C (571-1123), the “% C819 labelled at 10 μM” value came out at 42.5%.

B1: RIG-I-QQ (natural protein)
chain: MTTEQRRSLQAFQDYIRKTLDPTYILSYMAPWFREEEVQYIQAEKNNKGPMEAATLFLKFLLELQEEGWFRGFLDALDHAGYSGLYEAIESWDFKKIEKLEEYRLLLKRLQPEFKTRIIPTDIISDLSECLINQECEEILQICSTKGMMAGAEKLVECLLRSDKENWPKTLKLALEKERNKFSELWIVEKGIKDVETEDLEDKMETSDIQIFYQEDPECQNLSENSCPPSEVSDTNLYSPFKPRNYQLELALPAMKGKNTIICAPTGCGKTFVSLLICEHHLKKFPQGQKGKVVFFANQIPVYEQQKSVFSKYFERHGYRVTGISGATAENVPVEQIVENNDIIILTPQILVNNLKKGTIPSLSIFTLMIFDECHNTSKQHPYNMIMFNYLDQKLGGSSGPLPQVIGLTASVGVGDAKNTDEALDYICKLCASLDASVIATVKHNLEELEQVVYKPQKFFRKVESRISDKFKYIIAQLMRDTESLAKRICKDLEQLSQIQNREFGTQKYEQWIVTVQKACMVFQMPDKDEESRICKALFLYTSHLRKYQDALIISEHARMKDALDYLKDFFSNVRAAGFDEIEQDLTQRFEEKLQELESVSRDPSNENPKLEDLCFILQEEYHLNPETITILFVKTRALVDALKNWIEGNPKLSFLKPGILTGRGKTNQNTGMTLPAQKCILDAFKASGDHNILIATSVADEGIDIAQCNLVILYEYVGNVIKMIQTRGRGRARGSKCFLLTSNAGVIEKEQINMYKEKMMNDSILRLQTWDEAVFREKILHIQTHEKFIRDSQEKPKPVPDKENKKLLCRKCKALACYTADVRVIEECHYTVLGDAFKECFVSRPHPKPKQFSSFEKRAKIFCARQNCSHDWGIHVKYKTFEIPVIKIESFVVEDIATGVQTLYSKWKDFHFEKIPFDPAEMSK
Consider B1, for which, in “SEC”, the binding result is “binds”.
